Measured values reported in patent publication US7384966B2, “2-arylbenzothiazole derivatives” (Pharminxo Limited, priority 2004, dated 2008).
Read-outs that look alike come from different tables or passages of the source.

Key:
KM 12 = assay: MTT assay, 3 day exposure, KM12; type: cell-based, human; conditions: KM 12 (colon), read-out: GI50 values in cell lines, KM 12
Experimental: (§1) A range of compounds were evaluated in MTT assays following 3 day exposure against a panel of two human breast cancer cell lines MCF-7 (ER+) and MDA 468 (ER−), and two colon cancer cell lines KM12 and HCC 2998. In general the breast cell lines were more sensitive to the agents and the MDA 468 line the most sensitive of the four (Table 2). The benchmark active compound was 5-fluoro-2-(3,4-dimethoxyphenyl)benzothiazole (1) with GI50 values<0.1 nM against the two breast cell lines. […] The most interesting series of compounds were those combining a 5-fluoro group with two oxygenated substituents in the 3′,4′-positions where minor, seemingly conservative, structural changes were associated with a dramatic variations in activity (when compared to 1). […] In summary, this in vitro screen led to the identification of the fluorinated 2-(3,4-dimethoxyphenyl)benzothiazole structure as a novel antitumor pharmacophore with the 5-fluoro analogue (1) astride a pinnacle of activity.
(§2) The assays/methods used to generate the results referred to herein are well known to those skilled in the art and therefore it has not been necessary to describe them in detail.

MDA 468 = assay: MTT assay, 3 day exposure, MDA 468; type: cell-based; conditions: Homo sapiens, MDA 468 (breast), read-out: GI50 values in cell lines, MDA 468
Experimental: as §1, §2

[1] = system: MCF-7, MDA 468, KM12 and HCC 2998; assay: MTT assay, panel of four cell lines, results in words; type: cell-based, human; conditions: compared to compound 1
Experimental: as §1

HCC 2998 = assay: MTT assay, 3 day exposure, HCC 2998; type: cell-based; conditions: Homo sapiens, read-out: GI50 values in cell lines, HCC 2998
Experimental: as §1, §2

MCF-7 = assay: MTT assay, 3 day exposure, MCF-7; type: cell-based; conditions: Homo sapiens, read-out: GI50 values in cell lines, MCF-7
Experimental: as §1, §2

[2] = Homo sapiens, KM12, 72 h, MTT, 3 day exposure, triplicate
[3] = 72 h, MTT, 3 day exposure, triplicate
[4] = HCC 2998, 72 h, HCC 2998 (colon), MTT, 3 day exposure, triplicate
[5] = MCF7, 72 h, MCF-7 (breast), MTT, 3 day exposure, triplicate
[6] = MCF7, MCF-7 (breast), value in nM

| Structure (SMILES) | GI50 (KM 12; [2]) [nM] | GI50 (MDA 468; [3]) [nM] | melting point [°C] | growth inhibitory potency in words [1] | GI50 (HCC 2998; [4]) [nM] | GI50 (MCF-7; [5]) [nM] | GI50 (MDA 468; value in nM) [nM] | GI50 (MCF-7; [6]) [nM] | GI50 (KM 12; value in nM) [nM] | GI50 (HCC 2998; HCC 2998, HCC 2998 (colon), value in nM) [nM] |
| --- | --- | --- | --- | --- | --- | --- | --- | --- | --- | --- |
| CCOc1cc(-c2nc3cc(F)ccc3s2)ccc1OC [Compound 45, 2-(3-Ethoxy-4-methoxyphenyl)-5-fluorobenzothiazole] | 5420 | 92 | 136 to 139 | dyschemotherapeutic effect | 3320 | 80 | – | – | – | – |
| COc1ccc(-c2nc3cc(F)ccc3s2)cc1I [Compound 28, 5-Fluoro-2-(3-iodo-4-methoxyphenyl)benzothiazole] | 6900 | 360 | 167 | – | 940 | 820 | – | – | – | – |
| COc1cc(-c2nc3cc(F)ccc3s2)cc(OC)c1OC [Compound 43, 5-Fluoro-2-(3,4,5-trimethoxyphenyl)benzothiazole] | 13000 | 2.1 | 120 to 122 | retained nanomolar inhibitory potency against the MCF-7 cell and MDA 468 cell lines | 21100 | 1.9 | – | – | – | – |
| COc1ccc(-c2nc3cc(F)ccc3s2)cc1OC(C)=O [Compound 11, 2-(3-Acetoxy-4-methoxyphenyl)-5-fluorobenzothiazole] | – | – | 190 | – | – | – | – | – | – | – |
| COc1ccc(-c2nc3cc(F)ccc3s2)cc1F [Compound 25, 5-Fluoro-2-(3-fluoro-4-methoxyphenyl)benzothiazole] | 20600 | 640 | 157 to 159 | – | 13700 | 870 | – | – | – | – |
| COc1ccc(-c2nc3cc(F)ccc3s2)cc1OC(=O)c1cccc([N+](=O)[O-])c1 [Compound 17, 5-Fluoro-2-[3-(3-nitrobenzoyloxy)-4-methoxyphenyl]benzothiazole] | – | – | 212 | – | – | – | – | – | – | – |
| Fc1ccc2sc(-c3ccc4c(c3)OCO4)nc2c1 [Compound 7, 5-Fluoro-2-(3,4-methylenedioxyphenyl)benzothiazole] | 25100 | 570 | 161 to 164 | dyschemotherapeutic effect | 22300 | 20700 | – | – | – | – |
| COc1ccc(-c2nc3cc(F)ccc3s2)cc1OC(=O)c1ccccc1Cl [Compound 15, 2-[3-(2-Chlorobenzoyloxy)-4-methoxyphenyl]-5-fluorobenzothiazole] | – | – | 190 | – | – | – | – | – | – | – |
| COc1ccc(-c2sc3ccc(F)cc3[n+]2[O-])cc1OC [Compound 53, 2-(3,4-Dimethoxyphenyl)-5-fluorobenzothiazole N-oxide] | > 100000 | 760 | 201.4 | – | 40300 | 920 | – | – | – | – |
| COc1cc(OC)cc(-c2nc3cc(F)ccc3s2)c1 [Compound 42, 5-Fluoro-2-(3,5-dimethoxyphenyl)benzothiazole] | 7550 | 310 | 115 | only low micromolar inhibitory potency | 5210 | 1230 | – | – | – | – |
| COc1ccc(-c2nc3cc(F)ccc3s2)cc1OC(=O)N1CCOCC1 [Compound 19, 5-Fluoro-2-[3-(morpholin-4-ylcarbonyloxy)-4-methoxyphenyl]benzothiazole] | 7140 | – | 170 | – | 7530 | – | 0.64 | 0.085 | – | – |
| COc1cc(-c2nc3cc(F)ccc3s2)ccc1OC(=O)N1CCOCC1 [Compound 20, 5-Fluoro-2-[4-(morpholin-4-ylcarbonyloxy)-3-methoxyphenyl]benzothiazole] | – | – | 126 | – | – | – | – | – | – | – |
| COCOc1ccc(-c2nc3cc(F)ccc3s2)cc1OC [Compound 44, 5-Fluoro-2-(3-methoxy-4-methoxymethyloxyphenyl)benzothiazole] | 19200 | 48 | 101 to 102 | dyschemotherapeutic effect | 53500 | 65 | – | – | – | – |
| COc1ccc(-c2nc3cc(F)ccc3s2)cc1OC(=O)c1ccccc1 [Compound 14, 2-(3-Benzoyloxy-4-methoxyphenyl)-5-fluorobenzothiazole] | – | – | 160 | – | – | – | – | – | – | – |
| COc1ccc(-c2nc3cc(Cl)ccc3s2)cc1OC [Compound 23, 5-Chloro-2-(3,4-dimethoxyphenyl)benzothiazole] | 12400 | 1000 | 154 to 155 | essentially abolished inhibitory potency | 4880 | 27900 | – | – | – | – |
| COc1ccc(-c2nc3cc(F)ccc3s2)cc1O [Compound 5, 5-Fluoro-2-(3-hydroxy-4-methoxyphenyl)benzothiazole] | 18400 | 50 | 169 to 172 | dyschemotherapeutic effect | 7600 | 500 | – | – | – | – |
| Oc1ccc(-c2nc3cc(F)ccc3s2)cc1O [Compound 9, 5-Fluoro-2-(3,4-dihydroxyphenyl)benzothiazole] | – | – | 197 | dyschemotherapeutic effect | – | – | – | – | – | – |
| CCC(=O)Oc1cc(-c2nc3cc(F)ccc3s2)ccc1OC [Compound 13, 5-Fluoro-2-(3-propionyloxy-4-methoxyphenyl)benzothiazole] | – | – | 150 | – | – | – | – | – | – | – |
| COc1cc(-c2nc3cc(F)ccc3s2)ccc1O [Compound 6, 5-Fluoro-2-(4-hydroxy-3-methoxyphenyl)benzothiazole] | – | – | 156 | dyschemotherapeutic effect | – | – | – | – | – | – |
| CCCC(=O)Oc1cc(-c2nc3cc(F)ccc3s2)ccc1OC [Compound 47, 2-(3-Butyroyloxy-4-methoxyphenyl)-5-fluorobenzothiazole] | – | – | 125 | – | – | – | – | – | – | – |
| COc1ccc(-c2nc3cc(Br)ccc3s2)cc1OC [Compound 24, 5-Bromo-2-(3,4-dimethoxyphenyl)benzothiazole] | 65200 | 770 | 157 to 158 | essentially abolished inhibitory potency | 20000 | 13600 | – | – | – | – |
| COc1ccc(-c2nc3cc(F)ccc3s2)cc1Cl [Compound 26, 5-fluoro 2-(3-Chloro-4-methoxyphenyl)benzothiazole] | 7050 | 480 | – | – | 2500 | 760 | – | – | – | – |
| COc1ccc(-c2nc3cc(F)ccc3s2)cc1OC(=O)c1ccccc1Br [Compound 16, 2-[3-(2-Bromobenzoyloxy)-4-methoxyphenyl]-5-fluorobenzothiazole] | – | – | 220 to 223 | – | – | – | – | – | – | – |
| COc1ccc(-c2nc3cc(F)ccc3s2)cc1C [Compound 22, 5-Fluoro-2-(4-methoxy-3-methylphenyl)benzothiazole] | 18600 | 58 | 120 | – | 540 | 48 | – | – | – | – |
| COc1cc(-c2nc3cc(F)ccc3s2)ccc1OC(=O)c1cccc([N+](=O)[O-])c1 [Compound 21, 5-Fluoro-2-[4-(3-nitrobenzoyloxy)-3-methoxyphenyl]benzothiazole] | – | – | 190 | – | – | – | – | – | – | – |
| COc1ccc(-c2nc3cc(F)ccc3s2)cc1Br [Compound 27, 2-(3-Bromo-4-methoxyphenyl)-5-fluorobenzothiazole] | 6700 | 420 | 173 to 175 | – | 3450 | 850 | – | – | – | – |
| COc1ccc(-c2nc3cc(F)ccc3s2)c(OC)c1OC [Compound 50, 2-(2,3,4-Trimethoxyphenyl)-5-fluorobenzothiazole] | – | – | 109 to 110 | – | – | – | 336 | 157 | 2905.3 | 203 |
| COc1ccc(-c2nc3cc(F)ccc3s2)cc1OC(=O)c1ccc([N+](=O)[O-])cc1 [Compound 18, 5-Fluoro-2-[3-(4-nitrobenzoyloxy)-4-methoxyphenyl]benzothiazole] | – | – | 198 | – | – | – | – | – | – | – |
| CCOc1ccc(-c2nc3cc(F)ccc3s2)cc1OCC [Compound 46, 2-(3,4-Diethoxyphenyl)-5-fluorobenzothiazole] | 38500 | 55 | 109 to 113 | dyschemotherapeutic effect | – | 0.7 | – | 0.7 | – | – |
| COc1ccc(-c2nc3cc(F)ccc3s2)cc1 [Compound 29, 5-Fluoro-2-(4-methoxyphenyl)benzothiazole] | 24600 | 330 | 123 to 124 | – | 12400 | 490 | – | – | – | – |
